Measured values taken from ChEMBL document CHEMBL1201862, “PubChem BioAssay data set” (2004).
Active and inactive are the calls of the source.

Tests used:
[1] = Fluorescence-based cell-based high throughput dose response assay for inhibitors of the interaction of nucleotide-binding oligomerization domain containing 2 (NOD2) and the receptor-interacting serine-threonine kinase 2 (RIPK2).; type: functional; conditions: Homo sapiens
[2] = molecular target: T1, Rac GTPase-activating protein 1 (Homo sapiens, UniProt Q9H0H5); test: MgcRacGAP GTPase-activating activity inhibitors, confirmation, biochemical, ADP Hunter fluorescence, primary and confirmatory (AID 624330); type: functional
T1 sequence (Q9H0H5 whole entry): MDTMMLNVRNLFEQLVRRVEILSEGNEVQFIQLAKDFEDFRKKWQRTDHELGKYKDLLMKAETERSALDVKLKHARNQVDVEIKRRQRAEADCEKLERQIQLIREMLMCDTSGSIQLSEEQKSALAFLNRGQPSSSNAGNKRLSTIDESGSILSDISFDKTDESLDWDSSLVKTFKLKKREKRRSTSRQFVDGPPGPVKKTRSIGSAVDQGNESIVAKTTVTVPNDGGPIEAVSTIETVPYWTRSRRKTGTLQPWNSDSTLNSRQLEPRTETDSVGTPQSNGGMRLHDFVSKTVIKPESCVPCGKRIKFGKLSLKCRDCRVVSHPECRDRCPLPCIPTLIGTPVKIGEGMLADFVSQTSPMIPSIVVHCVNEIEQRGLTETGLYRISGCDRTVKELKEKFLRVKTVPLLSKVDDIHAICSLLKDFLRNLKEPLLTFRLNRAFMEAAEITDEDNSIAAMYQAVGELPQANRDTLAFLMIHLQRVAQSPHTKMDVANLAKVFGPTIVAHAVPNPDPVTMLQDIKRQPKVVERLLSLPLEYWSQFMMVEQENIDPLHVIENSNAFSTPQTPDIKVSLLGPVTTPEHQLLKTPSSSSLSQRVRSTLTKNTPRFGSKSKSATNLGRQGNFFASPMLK

Streptococcus = test: Group A Streptococcus viability loss, dose response, counter-screen for streptokinase expression inhibitor project, luminescence, BacTiterGlo (AID 1915); type: functional, organism-based;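 note: potency for reduction of bacterial viability or growth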
INS1 = test: beta cell apoptosis inhibitors, cytokine rescue, dose response, luminescence, retest (AID 449756); type: functional, cell-based; conditions: Rattus norvegicus;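 note: cell death triggered by IL-1 beta plus TNF-alpha plus IFN-gamma mixture; protective hits raise ATP signal compared with cytokine alone wells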
[3] = molecular target: T2, Heat shock protein HSP 90-alpha (Homo sapiens, UniProt P07900); test: Luminescence-based dose response biochemical high throughput screening assay for inhibitors of the Heat Shock Protein 90 (HSP90). [Related pubchem assays: 1831 (Summary AID.), 1846 (Confirmation screen.), 1789 (Primary screen.)]
[4] = tested on: Streptococcus sp. 'group A'; test: growth inhibition of control SK(-) GAS strain, dose response, counter-screen for streptokinase expression inhibitor project, luminescence, kanamycin, BacTiterGlo, confirmation (AID 1900); type: functional, organism-based
[5] = molecular target: T3, Heat shock factor protein 1 (Mus musculus, UniProt P38532); test: HSF1 potentiators in luciferase reporter cells, confirmation, cell-based, NIH3T3, luminescence, dose retest (AID 435004); type: functional;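 note: stress induced by proteasome inhibitor MG132 added 30 min after compound; luciferase reporter driven by HSF1 response element in NIH3T3 cells; actives raise luminescence as potentiators of the MG132 stress response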
T3 sequence (P38532 whole entry): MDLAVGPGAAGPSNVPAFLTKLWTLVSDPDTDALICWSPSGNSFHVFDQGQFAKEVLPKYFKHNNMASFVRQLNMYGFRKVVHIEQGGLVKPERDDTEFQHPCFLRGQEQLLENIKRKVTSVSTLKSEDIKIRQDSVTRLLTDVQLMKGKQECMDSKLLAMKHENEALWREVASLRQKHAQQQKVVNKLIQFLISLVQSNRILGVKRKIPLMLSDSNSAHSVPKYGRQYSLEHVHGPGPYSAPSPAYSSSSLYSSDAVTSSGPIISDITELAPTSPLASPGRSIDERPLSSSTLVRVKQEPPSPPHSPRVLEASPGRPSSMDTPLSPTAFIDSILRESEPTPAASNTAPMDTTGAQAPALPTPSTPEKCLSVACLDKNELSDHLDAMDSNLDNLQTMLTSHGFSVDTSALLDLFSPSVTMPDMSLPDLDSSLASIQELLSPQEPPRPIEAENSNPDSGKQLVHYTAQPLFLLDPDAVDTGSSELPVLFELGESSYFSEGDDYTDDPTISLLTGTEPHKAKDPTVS

Streptokinase A = molecular target: T4, Streptokinase A (Streptococcus pyogenes serotype M1, UniProt P10520); test: S. pyogenes streptokinase expression inhibitors, potency, dose response, plasminogen activation absorbance, OD405 (AID 1914); type: functional, Streptococcus pyogenes M1 GAS;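 note: secreted streptokinase activity via plasminogen activation per viability signal from cell pellet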
T4 sequence (P10520 whole entry): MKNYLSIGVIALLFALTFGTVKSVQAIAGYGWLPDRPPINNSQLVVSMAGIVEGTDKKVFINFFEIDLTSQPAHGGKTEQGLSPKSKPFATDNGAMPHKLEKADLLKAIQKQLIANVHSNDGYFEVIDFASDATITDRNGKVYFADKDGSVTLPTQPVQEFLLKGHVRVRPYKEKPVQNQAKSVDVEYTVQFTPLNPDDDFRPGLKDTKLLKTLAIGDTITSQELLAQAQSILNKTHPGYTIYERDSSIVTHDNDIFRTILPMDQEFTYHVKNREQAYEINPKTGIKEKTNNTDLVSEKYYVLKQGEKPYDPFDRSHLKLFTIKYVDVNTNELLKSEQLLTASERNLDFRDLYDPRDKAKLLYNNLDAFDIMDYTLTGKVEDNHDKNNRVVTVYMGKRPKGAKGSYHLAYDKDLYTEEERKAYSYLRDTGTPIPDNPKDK

[6] = molecular target: T2, Heat shock protein HSP 90-alpha; type: functional, organism-based
[7] = HeLa cell cytotoxicity, dose response, cytotoxicity control for MgcRacGAP inhibitor project (AID 624300); type: functional
Beta Lactamase = Beta Lactamase (Pseudomonas aeruginosa, UniProt Q932Y6); test: beta-lactamase reporter inhibitor potency, dose response, artefact control for NOD2-RIPK2 interaction inhibitor project, BLA reporter cells, FRET fluorescence (AID 651552); type: functional, cell-based
[8] = molecular target: T5, Sentrin-specific protease 1 (Homo sapiens, UniProt Q9P0U3); test: Dose response confirmation of small molecule inhibitors of the catalytic domain of the SUMO protease, SENP1 in a FRET assay.; type: functional; conditions: read-out: IC50_Mean
[9] = molecular target: T5, Sentrin-specific protease 1; test: potency of human SENP1 inhibitors, dose response, biochemical, kinetic FRET (AID 651697); type: functional; conditions: read-out: IC50_Mean
Beta-lactamase [10] = molecular target: Beta-lactamase (Pseudomonas aeruginosa, UniProt Q79MP6);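 note: biochemical dose-response test of metallo-beta-lactamase enzyme inhibition, read out by epi-absorbance; purified recombinant IMP-1 metallo-beta-lactamase with nitrocefin as substrate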
[11] = molecular target: T6, Endoribonuclease toxin MazF (Escherichia coli K-12, UniProt P0AE70); test: MazF toxin RNase activators, dose response, biochemical, fluorescence, single-stranded RNA substrate, uHTS hits (AID 588481); type: functional
T6 sequence (P0AE70 whole entry): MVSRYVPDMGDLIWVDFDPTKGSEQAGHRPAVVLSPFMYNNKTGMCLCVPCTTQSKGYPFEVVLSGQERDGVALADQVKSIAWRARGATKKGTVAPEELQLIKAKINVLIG

[12] = molecular target: T6, Endoribonuclease toxin MazF; test: fluorescent RNA oligo signal without MazF, dose response, counter-screen for MazEF activator project, biochemical, fluorescence, single-stranded RNase substrate (AID 588502); type: functional
Beta-lactamase [13] = molecular target: Beta-lactamase (Salmonella choleraesuis (strain SC-B67), UniProt Q5J463)
Chain of Beta-lactamase (Salmonella choleraesuis (strain SC-B67), UniProt Q5J463) (Q5J463 whole entry): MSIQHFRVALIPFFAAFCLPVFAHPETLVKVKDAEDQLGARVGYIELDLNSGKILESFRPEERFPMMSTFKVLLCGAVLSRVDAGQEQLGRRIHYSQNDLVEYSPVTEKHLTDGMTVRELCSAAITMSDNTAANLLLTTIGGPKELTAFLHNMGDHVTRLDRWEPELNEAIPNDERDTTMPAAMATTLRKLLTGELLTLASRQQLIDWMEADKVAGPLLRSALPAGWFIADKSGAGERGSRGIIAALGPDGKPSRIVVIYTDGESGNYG

T5 sequence (Q9P0U3 whole entry, the tested form may be a part): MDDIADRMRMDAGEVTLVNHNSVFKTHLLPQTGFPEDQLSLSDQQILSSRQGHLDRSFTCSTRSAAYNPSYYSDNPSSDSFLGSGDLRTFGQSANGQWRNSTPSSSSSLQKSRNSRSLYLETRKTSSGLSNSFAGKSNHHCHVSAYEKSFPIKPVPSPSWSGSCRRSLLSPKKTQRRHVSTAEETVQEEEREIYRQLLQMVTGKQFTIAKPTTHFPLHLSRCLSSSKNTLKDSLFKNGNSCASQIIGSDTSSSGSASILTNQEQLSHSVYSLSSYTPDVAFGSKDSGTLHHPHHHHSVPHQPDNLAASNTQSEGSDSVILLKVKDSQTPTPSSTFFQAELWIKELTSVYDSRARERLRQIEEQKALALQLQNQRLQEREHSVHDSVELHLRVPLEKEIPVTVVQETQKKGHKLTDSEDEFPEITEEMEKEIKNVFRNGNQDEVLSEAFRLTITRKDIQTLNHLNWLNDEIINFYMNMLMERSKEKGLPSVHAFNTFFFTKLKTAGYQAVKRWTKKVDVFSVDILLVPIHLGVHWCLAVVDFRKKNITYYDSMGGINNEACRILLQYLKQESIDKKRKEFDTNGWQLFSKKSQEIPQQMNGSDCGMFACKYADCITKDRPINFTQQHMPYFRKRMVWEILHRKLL
Chain of Beta Lactamase (Q932Y6 whole entry, the tested form may be a part): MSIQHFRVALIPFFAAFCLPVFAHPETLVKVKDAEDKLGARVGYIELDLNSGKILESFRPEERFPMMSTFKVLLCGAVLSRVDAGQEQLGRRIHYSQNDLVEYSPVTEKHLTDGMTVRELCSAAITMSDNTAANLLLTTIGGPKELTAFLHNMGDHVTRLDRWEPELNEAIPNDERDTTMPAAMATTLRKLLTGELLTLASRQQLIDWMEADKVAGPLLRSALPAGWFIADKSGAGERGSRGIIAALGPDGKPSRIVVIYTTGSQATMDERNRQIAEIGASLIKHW
Chain of Beta-lactamase (Pseudomonas aeruginosa, UniProt Q79MP6) (Q79MP6 whole entry): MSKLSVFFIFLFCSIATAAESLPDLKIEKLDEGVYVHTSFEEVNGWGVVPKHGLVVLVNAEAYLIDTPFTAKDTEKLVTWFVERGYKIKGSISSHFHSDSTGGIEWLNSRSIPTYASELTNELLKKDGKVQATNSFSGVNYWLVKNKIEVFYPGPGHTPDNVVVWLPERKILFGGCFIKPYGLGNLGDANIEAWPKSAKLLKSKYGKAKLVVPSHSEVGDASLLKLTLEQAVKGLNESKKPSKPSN

With `O=[N+]([O-])/C=C/c1ccc2c(ccn2Cc2ccccc2)c1` the IC50 [1] was 1.74 µM (active), the IC50 [2] was 23.3 µM (active) and the EC50 (Streptococcus) was 11.6 µM (active). The AC50 (INS1) was 6.82 µM (active), the IC50 [3] was 2.98 µM (active) and the EC50 [4] was 2.91 µM (active). For the same molecule, the EC50 [5] was 5.7 µM (active), the EC50 (Streptokinase A) was 6.15 µM (active) and the AC50 [6] was 3.42 µM (active). For the same molecule, the CC50 [7] was 42 µM (active) and the IC50 (Beta Lactamase) was 30 µM (inactive).
In the case of `O=C1C=C(c2cccc(Cl)c2O)C[C@@H](c2ccc3c(c2)OCO3)C1`, the IC50 [8] was 0.993 µM (active) and the IC50 [9] was 1.93 µM (active).
For `CCOc1cc2c(cc1/C=C/c1noc(C)c1[N+](=O)[O-])OC(C)C2` (configuration not stated), the IC50 (Beta-lactamase [10]) was > 59.6 µM (inactive), the EC50 [11] was > 99 µM (inactive) and the EC50 [12] was > 99 µM (inactive). For the same molecule, the IC50 (Beta-lactamase [13]) was > 59.6 µM (inactive).
